Two compounds from patent US20260240755A1, “Use Of Plant Cell Suspension Extracellular Vesicle-Derived Small Rnas As Cosmetic Active Ingredient” (ACTV BiYOTEKNOLOJi LABORATUVAR SANAYi VE TiCARET ANONiM …, priority 2023, published 2026) can be followed below.

Test [1] relates to H. cordata cell suspension. Nature of the test: Elicitor effect on amount of small RNA from cell suspension EVs. The format is cell-based, Houttuynia cordata. The conditions noted are these: for amount of RNA obtained from nutrient medium EVs compared to the control group: elicitor added on the 14th day, 0.2-0.8 mM, 1-3 days.
The test system of test [2] is H. cordata cell suspension. Nature of the test: Elicitor effect on cell suspension biomass (lyophilized cell weight). In kind it is cell-based, Houttuynia cordata. The conditions noted are these: elicitor treatment. The protocol: On the 14th day of the culture, the cell suspension medium was supplemented with 0.2-0.4 and 0.8 mM MeJA or SA, and the suspensions were subjected to additional incubation for 1, 2, and 3 days. After the incubation periods of H. cordata cell suspension cultures were completed, the cells were passed through a filter, and the cultures were terminated. Subsequently, cells from all groups were lyophilized. The weights of the lyophilized cells were measured and recorded.

`CC/C=C\CC1C(=O)CCC1CC(=O)OC` (stereo not drawn) [MeJA, Methyl jasmonate]: in test [1] (0.2 mM MeJA for 72 hours), the “amount of small RNA obtained” value turned out to be 3000 ng/µL and the “amount of small RNA relative to the control group” value is given as 1.9 times. For the same compound, the “amount of RNA obtained from nutrient medium EVs compared to the control group” value in test [1] is reported as “led to an increase”. The “quantity of H. cordata cell suspensions (lyophilized cell weight) compared to the control group” value in test [2] is “No statistically significant difference”.

As for `O=C(O)c1ccccc1O` [SA, Salicylic acid], the “amount of RNA obtained from nutrient medium EVs compared to the control group” value in test [1] is “did not result in a significant increase”. Besides, the “quantity of H. cordata cell suspensions (lyophilized cell weight) compared to the control group” value in test [2] is on record as “No statistically significant difference”.
